Experimental data: patent US20100273203A1 (priority 2009, published 2010)
Like-named read-outs stand apart in the source and are kept apart here.

Experiments:
[1] = target: T1, CYP2C9 (Homo sapiens, UniProt P11712); details: read-out: reported Km; cited from earlier work
[2] = LC-MS/MS urinary metabolic profile of patients receiving warfarin; details: for % R / % S (proportion in (S)-enantiomeric form) / % conjugated (proportion glucuronidated) / urinary concentration: urine; for urinary concentration: free and conjugated
Text: All chemicals used in this study were of at least reagent grade. Unless otherwise specified, all chemicals and reagents were purchased from either Sigma-Aldrich (St. Louis, Mo.) or Thermo Fisher Scientific (Waltham, Mass.). […] Ethyl alcohol (100%) was purchased from AAPER (Shelbyville, Ky.). Re-combinant CYP2C9*1, CYP3A4, CYP1A2, and CYP2C19 were expressed in baculovirus-infected insect cells and purchased from BD Biosciences (San Jose, Calif.). Commercially available urine specimens from three females (F84, F85, and F87) were provided by the Emergency Response and Air Toxicants Branch, Division of Laboratory Science National Center for Environmental Health Centers for Disease Control and Prevention (DeKalb County, Ga.). Patient studies were conducted under IRB-approved protocols, and all patients signed informed consent documentation.
This analytical phase was accomplished by reverse-phase HPLC using a 4.6 mm×150 mm C18 Zorbax Eclipse 5 μm XDB-C18 column provided by Agilent (Santa Clara, Calif.). The operating temperature was 40° C., and the sample injection volume was 5.0 μL. HPLC mobile phases consisted H2O (0.1% acetic acid v/v) (A) and methanol (0.1% acetic acid v/v) (B). The flow rate was 1 mL/min. […] The total run time per sample was 10 min. Specific MS/MS experimental conditions used in this study are noted in Table 1.
To determine the relative abundance of the (R)-and (S)-enantiomers of each metabolite, a 4.6 mm×25 cm Chirobiotic V5 μm column supplied by Supelco (Bellefonte, Pa.) was incorporated during the second analytical phase. Mobile phases consisted of H2O (0.1% acetic acid v/v) (A) and acetonitrile (0.1% acetic acid v/v) (B) with a flow rate of 800 μL/min. Enantiomeric separations were accomplished under isocratic conditions (80% A and 20% B). The sample injection volume was 15.0 μL. Enantiomeric MS/MS analyses were performed in negative ion mode by electrospray ionization (ESI) using a Turbo IonSpray source. A total run time of 20 min was required for adequate resolution. Specific MS/MS experimental conditions used in this study are noted in the Table 2.
Each response was normalized to that of the internal standard, 7-hydroxycoumarin (10 μM). […] Measurements of these three metabolites were calculated by taking the difference of the amount measured in the first analytical phase, which contained both (R)-and (S) isomers from the amount of the (S)-isomer measured in the second analytical phase (eq 3). Glucuronidated metabolites were measured by incubating 250 μL of urine with 2000 units of GUS in 100 mM sodium acetate buffer, pH 5.0. The final volume for each of these reactions was 1 mL. Control reactions omitting GUS were included with each sample set. Reactions were incubated overnight at 37° C., after which they were stored at −80° C. Immediately before analysis, both samples were diluted with an equal volume of ethanol containing 7-hydroxycoumarin (10 μM final concentration). The difference between GUS-treated samples and controls represented the amount of glucuronidated metabolites present.

[3] = target: T2, CYP1A2 (Homo sapiens, UniProt P05177); experiment: biochemical
T2 sequence (P05177 1-516): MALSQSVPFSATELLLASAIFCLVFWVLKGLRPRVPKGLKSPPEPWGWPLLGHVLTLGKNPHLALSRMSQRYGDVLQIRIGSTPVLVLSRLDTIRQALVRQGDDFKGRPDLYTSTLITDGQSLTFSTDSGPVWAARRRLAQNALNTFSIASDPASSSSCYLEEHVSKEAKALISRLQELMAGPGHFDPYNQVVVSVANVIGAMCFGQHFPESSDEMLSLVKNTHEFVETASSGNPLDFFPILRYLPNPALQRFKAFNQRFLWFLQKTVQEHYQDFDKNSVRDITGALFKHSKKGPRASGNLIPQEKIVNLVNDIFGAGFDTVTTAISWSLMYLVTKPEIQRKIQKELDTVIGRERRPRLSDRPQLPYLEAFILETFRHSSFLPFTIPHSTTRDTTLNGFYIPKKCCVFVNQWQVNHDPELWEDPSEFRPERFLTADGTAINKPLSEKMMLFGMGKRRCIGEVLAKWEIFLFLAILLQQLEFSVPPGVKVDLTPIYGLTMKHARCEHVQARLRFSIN

[4] = target: T3, CYP2C9*1 (Homo sapiens, UniProt P11712); details: read-out: IC50 for CYP marker reaction; P450-Glo marker reaction
[5] = target: CYP2C9 present in the human liver microsomes (Homo sapiens, UniProt P11712); details: S-warfarin metabolism; 7-hydroxywarfarin formation as marker
Sequence of CYP2C9 present in the human liver microsomes (P11712 whole entry): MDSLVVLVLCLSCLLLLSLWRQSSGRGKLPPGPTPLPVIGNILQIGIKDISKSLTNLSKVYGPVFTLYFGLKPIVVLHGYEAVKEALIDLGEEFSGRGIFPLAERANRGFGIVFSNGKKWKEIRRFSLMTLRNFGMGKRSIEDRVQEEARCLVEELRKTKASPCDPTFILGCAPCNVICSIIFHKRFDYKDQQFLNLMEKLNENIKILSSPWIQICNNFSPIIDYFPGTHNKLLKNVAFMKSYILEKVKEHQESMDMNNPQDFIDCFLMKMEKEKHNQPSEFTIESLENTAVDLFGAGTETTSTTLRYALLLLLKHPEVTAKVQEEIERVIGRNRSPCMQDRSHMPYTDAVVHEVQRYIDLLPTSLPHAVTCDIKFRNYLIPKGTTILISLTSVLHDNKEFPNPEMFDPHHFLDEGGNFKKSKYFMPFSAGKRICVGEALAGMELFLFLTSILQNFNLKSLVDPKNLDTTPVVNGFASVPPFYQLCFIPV
Protocol: (§1) For each hydroxywarfarin, at least 4 independent experimental replicates were performed.
(§2) MS/MS experimental conditions was used as described previously (6).
(§3) The most probable inhibition mechanism for recombinant CYP2C9 and human liver microsome reactions was identified using DynaFit ver. 3.28 (Biokin, Ltd) (20). Data from each set of hydroxywarfarin experiments were fit to traditional reversible inhibition mechanisms (competitive, uncompetitive, noncompetitive, or mixed). The respective kinetic parameters (Ki and Ki′) were set as variables, while the kinetic parameters (Vmax and Km) were constants based on values obtained from uninhibited reactions. The most probable mechanism was then identified using the Akaike Information Criterion (AICc) for model discrimination (21).

[6] = target: T3, CYP2C9*1; details: S-warfarin metabolism, 7-hydroxywarfarin formation as marker
Protocol: as §1, §2, §3

[7] = target: UGT1A10 (Homo sapiens, UniProt Q9HAW8); details: glucuronidation; racemic OHWars
Sequence of UGT1A10 (Q9HAW8 26-530): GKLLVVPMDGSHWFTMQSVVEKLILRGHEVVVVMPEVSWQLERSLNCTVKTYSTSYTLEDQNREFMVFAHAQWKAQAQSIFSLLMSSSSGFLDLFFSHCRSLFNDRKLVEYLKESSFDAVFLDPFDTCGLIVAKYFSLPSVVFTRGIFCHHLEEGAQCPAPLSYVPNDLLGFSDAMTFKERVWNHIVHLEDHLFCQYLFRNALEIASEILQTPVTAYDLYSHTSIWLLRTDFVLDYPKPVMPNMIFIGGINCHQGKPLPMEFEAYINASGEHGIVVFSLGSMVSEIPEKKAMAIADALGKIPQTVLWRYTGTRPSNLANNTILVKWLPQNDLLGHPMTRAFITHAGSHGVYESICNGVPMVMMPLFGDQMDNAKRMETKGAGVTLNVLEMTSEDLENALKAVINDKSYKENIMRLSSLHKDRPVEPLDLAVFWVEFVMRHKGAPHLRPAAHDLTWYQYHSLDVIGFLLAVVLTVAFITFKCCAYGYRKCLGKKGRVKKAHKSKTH
Text: (§4) The characterization of hepatic and extrahepatic glucuronidation may be made based on glucuronidation studies with 100 commercially available HLM and 100 intestinal microsomal preparations available in our laboratory. […] Both racemic mixtures and separated R and S enantiomers may be assayed. […] Activities of extrahepatic (UGT1A8 and UGT1A10) and hepatic (UGT1A1, UGT1A3, and UGT1A9) isoforms may be compared to that of their respective microsomal preparations, and assign the contribution of specific UGTs to product formation by the human samples.

[8] = target: UGT1A8 (Homo sapiens, UniProt Q9HAW9); details: glucuronidation; racemic OHWars
Sequence of UGT1A8 (Q9HAW9 26-530): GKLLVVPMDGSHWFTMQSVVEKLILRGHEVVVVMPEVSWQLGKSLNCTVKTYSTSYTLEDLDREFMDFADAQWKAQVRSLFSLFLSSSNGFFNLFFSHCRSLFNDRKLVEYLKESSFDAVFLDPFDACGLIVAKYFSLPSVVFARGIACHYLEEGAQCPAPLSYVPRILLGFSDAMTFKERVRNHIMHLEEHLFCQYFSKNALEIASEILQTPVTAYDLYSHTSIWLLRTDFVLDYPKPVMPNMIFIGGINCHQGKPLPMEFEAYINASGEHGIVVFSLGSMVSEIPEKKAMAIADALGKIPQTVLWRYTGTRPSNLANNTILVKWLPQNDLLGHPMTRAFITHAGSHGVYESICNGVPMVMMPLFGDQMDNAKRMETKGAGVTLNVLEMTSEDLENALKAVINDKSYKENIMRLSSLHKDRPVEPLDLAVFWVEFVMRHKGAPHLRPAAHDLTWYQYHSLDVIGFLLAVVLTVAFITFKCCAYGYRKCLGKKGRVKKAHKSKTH
Text: as §4

[9] = target: UGT1A9 (Homo sapiens, UniProt O60656); details: glucuronidation; racemic OHWars
Sequence of UGT1A9 (O60656 26-530): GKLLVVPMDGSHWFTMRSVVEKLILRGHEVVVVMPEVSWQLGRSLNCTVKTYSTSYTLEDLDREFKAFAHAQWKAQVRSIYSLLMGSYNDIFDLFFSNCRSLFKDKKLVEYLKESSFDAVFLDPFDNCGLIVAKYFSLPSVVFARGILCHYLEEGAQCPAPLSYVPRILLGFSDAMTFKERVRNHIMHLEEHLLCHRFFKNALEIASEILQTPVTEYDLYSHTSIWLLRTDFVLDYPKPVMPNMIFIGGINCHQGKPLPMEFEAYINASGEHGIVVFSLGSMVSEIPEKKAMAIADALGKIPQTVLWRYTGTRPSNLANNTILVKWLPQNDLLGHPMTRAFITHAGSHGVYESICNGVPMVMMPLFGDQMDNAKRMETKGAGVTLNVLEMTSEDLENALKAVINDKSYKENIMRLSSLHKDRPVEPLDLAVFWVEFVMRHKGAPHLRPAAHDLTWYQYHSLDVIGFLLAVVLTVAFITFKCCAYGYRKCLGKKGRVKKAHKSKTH
Text: as §4

[10] = target: T4, CYP3A4 (Homo sapiens, UniProt P08684); details: read-out: IC50 for CYP marker reaction; P450-Glo marker reaction
T4 sequence (P08684 whole entry): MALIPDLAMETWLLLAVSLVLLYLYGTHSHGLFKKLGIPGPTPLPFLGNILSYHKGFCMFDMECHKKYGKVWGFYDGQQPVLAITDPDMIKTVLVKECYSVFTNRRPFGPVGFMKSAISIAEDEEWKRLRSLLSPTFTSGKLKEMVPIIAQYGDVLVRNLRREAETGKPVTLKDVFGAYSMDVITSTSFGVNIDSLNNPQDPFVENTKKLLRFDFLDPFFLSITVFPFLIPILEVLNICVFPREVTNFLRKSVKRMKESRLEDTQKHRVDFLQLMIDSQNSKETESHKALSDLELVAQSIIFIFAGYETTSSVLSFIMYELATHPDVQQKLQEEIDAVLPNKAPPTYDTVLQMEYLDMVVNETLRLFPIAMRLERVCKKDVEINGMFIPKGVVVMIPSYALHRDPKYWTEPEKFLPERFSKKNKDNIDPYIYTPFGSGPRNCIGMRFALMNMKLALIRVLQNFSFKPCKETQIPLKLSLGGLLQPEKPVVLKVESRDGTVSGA

[11] = target: T1, CYP2C9; details: read-out: IC50 toward recombinant CYP2C9 activity; P450-Glo, 50 μM Luciferin H; racemic compounds
Protocol: Hydroxywarfarins were screened for inhibitory potential toward recombinant CYP2C9 using the Promega (Madison, Wis.) CY2C9 P450-Glo™ Assay using the manufacturer's protocol. These IC50 studies were analyzed on a PerkinElmer Victor^3V™ 1420 Multilabel Counter. Recombinant CYP2C9, 50 nM, was incubated with 50 μM Luciferin H, and six concentrations of each hydroxywarfarin from approximately 10 nM to 4 mM final concentration, as optimized for each compound. The appropriate volume of hydroxywarfarin stocks in 100% ethanol were added to each well prior to addition of the substrate and enzyme, and the ethanol was allowed to evaporate at room temperature to minimize solvent effects on CYP2C9 activity. A final DMSO concentration of 1% was present in the reactions due to the P450-Glo Luciferin H. The reaction was initiated upon addition of an NADPH regenerating solution (BD Biosciences) and quenched with a luciferase quench (Promega) at 30 min.

[12] = target: T2, CYP1A2; details: read-out: IC50 for CYP marker reaction; P450-Glo marker reaction
[13] = test system: plasma proteins; details: cited from earlier work
[14] = target: T1, CYP2C9; details: not metabolized by CYP2C9; cited from earlier work
[15] = target: T4, CYP3A4; experiment: Steady-state metabolism of R- and S-warfarin by recombinant CYP3A4
Protocol: (§5) Reactions were initiated upon addition of an NADPH regenerating system [2 μU μL-1 glucose 6-phosphate dehydrogenase, 10 mM glucose 6-phosphate, 2 mM MgCl2, 1 mM NADP^+]. […] The quenched reactions were centrifuged and the resulting supernatant containing substrate and products resolved and quantified by UPLC-MS/MS. Each experiment was performed in at least 4 independent experimental replicates.
(§6) The flow rate was constant at 250 μL/min. […] Electrospray conditions were as follows: spray voltage of 4500 V, sheath gas pressure 45, auxiliary gas pressure 20, and collision energy of 15-15 eV (compound specific).
(§7) Final metabolite concentrations were calculated from the ratio of metabolite area to internal standard area in the sample and compared to calibration curves as determined from the UPLC-MS/MS method. All compounds were quantified relative to authentic standards. The resulting kinetic data were analyzed with GraphPad Prism 5® software. Non-linear regression analysis was used to fit steady-state data to the Michaelis-Menten equation to determine the Vmax and Km parameters.

[16] = target: CYP3A7 (Homo sapiens, UniProt P24462); experiment: Steady-state metabolism of R- and S-warfarin by recombinant CYP3A7
Sequence of CYP3A7 (P24462 whole entry): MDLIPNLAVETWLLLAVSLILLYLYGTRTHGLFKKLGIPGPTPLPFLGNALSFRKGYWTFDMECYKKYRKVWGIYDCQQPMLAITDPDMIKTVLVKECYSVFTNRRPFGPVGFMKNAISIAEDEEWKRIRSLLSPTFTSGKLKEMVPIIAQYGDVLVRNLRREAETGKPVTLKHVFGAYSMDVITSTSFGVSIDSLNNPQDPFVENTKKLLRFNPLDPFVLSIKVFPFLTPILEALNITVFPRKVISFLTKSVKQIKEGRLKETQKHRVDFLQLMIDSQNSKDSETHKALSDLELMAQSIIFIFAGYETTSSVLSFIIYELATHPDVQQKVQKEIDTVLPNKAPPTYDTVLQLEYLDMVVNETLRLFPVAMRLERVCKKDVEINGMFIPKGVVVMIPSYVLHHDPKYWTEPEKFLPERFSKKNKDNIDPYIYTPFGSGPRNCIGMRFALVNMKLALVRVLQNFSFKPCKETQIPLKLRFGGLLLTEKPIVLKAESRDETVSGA
Protocol: as §5, §6, §7

[17] = 10-hydroxywarfarin formation, 37° C, pH 7.4

T1 sequence (P11712 whole entry): as the sequence (P11712 whole entry) above

For `CC(=O)CC(c1ccccc1)c1c(O)c2ccccc2oc1=O` (racemic) [WAR, warfarin], the Km [1] is listed as 2.6 µM, the “individual concentrations in urine” value ([2]; female, human, in vivo) is listed as 10 to 200 nM and the IC50 [3] is listed as 740 µM.

For `CC(=O)CC(c1ccccc1)c1c(O)c2cccc(O)c2oc1=O` (stereo not shown) [8-OH-WAR, 8-hydroxywarfarin], the IC50 [4] was 17.2 µM, the Ki [5] was 13 µM and the Mechanism of inhibition [5] was “Competitive”. For the same compound, the Ki [6] was 21 µM, the Mechanism of inhibition [6] was “Mixed” and the Ki ([6]; mixed inhibition) was 103 µM. The Km [7] was 383 ± 81 µM, the Vmax [7] was 25 ± 2 nmol/mg protein/min and the Km [8] was 206 ± 70 µM. It also gave a Vmax [8] of 1.5 ± 0.1 nmol/mg protein/min, a Km [9] of 107 ± 36 µM and a Vmax [9] of 1.7 ± 0.1 nmol/mg protein/min. The IC50 [10] was 240 µM, the IC50 [11] was 16 µM and the IC50 [12] was 830 µM. For the same compound, the “% R” value ([2]; patient F84) was 100%, the “% S (proportion in (S)-enantiomeric form)” value ([2]; patient F84) was 0% and the “% conjugated (proportion glucuronidated)” value ([2]; patient F84) was 31%. For the same compound, the urinary concentration ([2]; patient F84) was 111 nM, the “% R” value ([2]; patient F85) was 98% and the “% S (proportion in (S)-enantiomeric form)” value ([2]; patient F85) was 2%. The “% conjugated (proportion glucuronidated)” value ([2]; patient F85) was 53%, the urinary concentration ([2]; patient F85) was 109 nM and the “% R” value ([2]; patient F87) was 69%. The “% S (proportion in (S)-enantiomeric form)” value ([2]; patient F87) was 31%, the “% conjugated (proportion glucuronidated)” value ([2]; patient F87) was 7% and the urinary concentration ([2]; patient F87) was 231 nM. For the same compound, the “plasma protein binding affinity relative to warfarin” value [13] was “three- to four-fold lower affinity”.

In the case of `CC(=O)C[C@H](c1ccccc1)c1c(O)c2ccccc2oc1=O` [R-warfarin, (R) warfarin], the Ki [14] is listed as about 8 µM, the Km ([15]; 4′-hydroxywarfarin formation) is listed as 36 µM and the Vmax ([15]; 4′-hydroxywarfarin formation) is listed as 98 pmol product/min/nmol P450. For the same compound, the Km ([15]; 10-hydroxywarfarin formation) was 16 µM, the Vmax [15, 17] was 1055 pmol product/min/nmol P450 and the Km ([16]; 4′-hydroxywarfarin formation) was 1390 µM. The Vmax ([16]; 4′-hydroxywarfarin formation) was 260 pmol product/min/nmol P450, the Km ([16]; 10-hydroxywarfarin formation) was 54 µM and the Vmax [16, 17] was 116 pmol product/min/nmol P450.
